Test results published in ChEMBL document CHEMBL4138146, “A Schmidt rearrangement-mediated synthesis of novel tetrahydro-benzo[1,4]diazepin-5-ones as potential anticancer and antiprotozoal agents” (Eur J Med Chem, 2017).

Key:
Format in all cases: functional
NCI-H522 = assay: Growth inhibition of human NCI-H522 cells assessed as cell growth at 10^-4 M incubated for 48 hrs by sulforhodamine B assay relative to control; settings: NCI-H522, 48 h, read-out: Activity
SNB-19 [1] = assay: Growth inhibition of human SNB19 cells assessed as cell growth at 10^-4 M incubated for 48 hrs by sulforhodamine B assay relative to control; settings: SNB-19, 48 h, read-out: Activity
K562 [2] = assay: Growth inhibition of human K562 cells assessed as cell growth at 10^-8 M incubated for 48 hrs by sulforhodamine B assay relative to control; settings: K562, 48 h, read-out: Activity
SNB-19 [3] = assay: Growth inhibition of human SNB19 cells assessed as cell growth at 10^-5 M incubated for 48 hrs by sulforhodamine B assay relative to control; settings: SNB-19, 48 h, read-out: Activity
PC-3 = assay: Growth inhibition of human PC3 cells assessed as cell growth at 10^-4 M incubated for 48 hrs by sulforhodamine B assay relative to control; settings: PC-3, 48 h, read-out: Activity
LOX IMVI = assay: Growth inhibition of human LOXIMVI cells assessed as cell growth at 10^-8 M incubated for 48 hrs by sulforhodamine B assay relative to control; settings: read-out: Activity
NCI-H322M = assay: Growth inhibition of human NCI-H322M cells assessed as cell growth at 10^-6 M incubated for 48 hrs by sulforhodamine B assay relative to control; settings: read-out: Activity
U-251 = assay: Growth inhibition of human U251 cells assessed as cell growth at 10^-6 M incubated for 48 hrs by sulforhodamine B assay relative to control; settings: U-251, 48 h, read-out: Activity
UO-31 = assay: Growth inhibition of human UO31 cells assessed as cell growth at 10^-6 M incubated for 48 hrs by sulforhodamine B assay relative to control; settings: UO-31, 48 h, read-out: Activity
RPMI-8226 = assay: Growth inhibition of human RPMI8226 cells assessed as cell growth at 10^-8 M incubated for 48 hrs by sulforhodamine B assay relative to control; settings: RPMI-8226, 48 h, read-out: Activity
A549 = assay: Growth inhibition of human A549/ATCC cells assessed as cell growth at 10^-7 M incubated for 48 hrs by sulforhodamine B assay relative to control; settings: A549, 48 h, read-out: Activity
DU-145 [4] = assay: Growth inhibition of human DU145 cells assessed as cell growth at 10^-4 M incubated for 48 hrs by sulforhodamine B assay relative to control; settings: DU-145, 48 h, read-out: Activity
ACHN = assay: Growth inhibition of human ACHN cells assessed as cell growth at 10^-5 M incubated for 48 hrs by sulforhodamine B assay relative to control; settings: read-out: Activity
SN12C = assay: Growth inhibition of human SN12C cells assessed as cell growth at 10^-5 M incubated for 48 hrs by sulforhodamine B assay relative to control; settings: read-out: Activity
RXF 393 = assay: Growth inhibition of human RXF393 cells assessed as cell growth at 10^-6 M incubated for 48 hrs by sulforhodamine B assay relative to control; settings: RXF 393, 48 h, read-out: Activity
SK-MEL-5 = assay: Growth inhibition of human SK-MEL-5 cells assessed as cell growth at 10^-8 M incubated for 48 hrs by sulforhodamine B assay relative to control; settings: SK-MEL-5, 48 h, read-out: Activity
OVCAR-3 = assay: Growth inhibition of human OVCAR3 cells assessed as cell growth at 10^-5 M incubated for 48 hrs by sulforhodamine B assay relative to control; settings: OVCAR-3, 48 h, read-out: Activity
SNB-75 [5] = assay: Growth inhibition of human SNB75 cells assessed as cell growth at 10^-7 M incubated for 48 hrs by sulforhodamine B assay relative to control; settings: SNB-75, 48 h, read-out: Activity
K562 [6] = assay: Growth inhibition of human K562 cells assessed as cell growth at 10^-4 M incubated for 48 hrs by sulforhodamine B assay relative to control; settings: K562, 48 h, read-out: Activity
MOLT-4 = assay: Growth inhibition of human MOLT4 cells assessed as cell growth at 10^-4 M incubated for 48 hrs by sulforhodamine B assay relative to control; settings: MOLT-4, 48 h, read-out: Activity
MDA-MB-435 = assay: Growth inhibition of human MDA-MB-435 cells assessed as cell growth at 10^-6 M incubated for 48 hrs by sulforhodamine B assay relative to control; settings: MDA-MB-435, 48 h, read-out: Activity
EKVX = assay: Growth inhibition of human EKVX cells assessed as cell growth at 10^-5 M incubated for 48 hrs by sulforhodamine B assay relative to control; settings: read-out: Activity
SK-MEL-2 = assay: Growth inhibition of human SK-MEL-2 cells assessed as cell growth at 10^-8 M incubated for 48 hrs by sulforhodamine B assay relative to control; settings: SK-MEL-2, 48 h, read-out: Activity
IGROV-1 = assay: Growth inhibition of human IGROV1 cells assessed as cell growth at 10^-8 M incubated for 48 hrs by sulforhodamine B assay relative to control; settings: IGROV-1, 48 h, read-out: Activity
SNB-75 [7] = assay: Growth inhibition of human SNB75 cells assessed as cell growth at 10^-8 M incubated for 48 hrs by sulforhodamine B assay relative to control; settings: SNB-75, 48 h, read-out: Activity
HL-60(TB) = assay: Growth inhibition of human HL-60(TB) cells assessed as cell growth at 10^-5 M incubated for 48 hrs by sulforhodamine B assay relative to control; settings: HL-60, 48 h, read-out: Activity
SNB-19 [8] = assay: Growth inhibition of human SNB19 cells assessed as cell growth at 10^-7 M incubated for 48 hrs by sulforhodamine B assay relative to control; settings: SNB-19, 48 h, read-out: Activity
MDA-MB-231 = assay: Growth inhibition of human MDA-MB-231 cells assessed as cell growth at 10^-7 M incubated for 48 hrs by sulforhodamine B assay relative to control; settings: MDA-MB-231, 48 h, read-out: Activity
DU-145 [9] = assay: Growth inhibition of human DU145 cells assessed as cell growth at 10^-7 M incubated for 48 hrs by sulforhodamine B assay relative to control; settings: DU-145, 48 h, read-out: Activity
NCI/ADR-RES = assay: Growth inhibition of human NCI/ADR-RES cells assessed as cell growth at 10^-6 M incubated for 48 hrs by sulforhodamine B assay relative to control; settings: read-out: Activity
MDA-MB-468 = assay: Growth inhibition of human MDA-MB-468 cells assessed as cell growth at 10^-4 M incubated for 48 hrs by sulforhodamine B assay relative to control; settings: MDA-MB-468, 48 h, read-out: Activity
SF-539 = assay: Growth inhibition of human SF539 cells assessed as cell growth at 10^-6 M incubated for 48 hrs by sulforhodamine B assay relative to control; settings: SF-539, 48 h, read-out: Activity
SF-268 = assay: Growth inhibition of human SF268 cells assessed as cell growth at 10^-4 M incubated for 48 hrs by sulforhodamine B assay relative to control; settings: SF-268, 48 h, read-out: Activity
Hs-578T = assay: Growth inhibition of human Hs 578T cells assessed as cell growth at 10^-8 M incubated for 48 hrs by sulforhodamine B assay relative to control; settings: read-out: Activity

CCCCOc1nc2ccccc2cc1C1CNC(=O)c2ccccc2N1 (centres undefined)
growth at 100 µM (NCI-H522): -35%
growth at 100 µM (SNB-19 [1]): -5%
growth at 0.01 µM (K562 [2]): 102%
growth at 10 µM (SNB-19 [3]): 38%
growth at 100 µM (PC-3): -63%
growth at 0.01 µM (LOX IMVI): 95%
growth at 1 µM (NCI-H322M): 86%
growth at 1 µM (U-251): 85%
growth at 1 µM (UO-31): 61%
growth at 0.01 µM (RPMI-8226): 95%
growth at 0.1 µM (A549): 100%
growth at 100 µM (DU-145 [4]): -43%
growth at 10 µM (ACHN): 22%
growth at 10 µM (SN12C): 19%
growth at 1 µM (RXF 393): 80%
growth at 0.01 µM (SK-MEL-5): 93%
growth at 10 µM (OVCAR-3): -53%
growth at 0.1 µM (SNB-75 [5]): 89%
growth at 100 µM (K562 [6]): -25%
growth at 100 µM (MOLT-4): -37%
growth at 1 µM (MDA-MB-435): 8%
growth at 10 µM (EKVX): 31%
growth at 0.01 µM (SK-MEL-2): 96%
growth at 0.01 µM (IGROV-1): 97%
growth at 0.01 µM (SNB-75 [7]): 73%
growth at 10 µM (HL-60(TB)): -28%
growth at 0.1 µM (SNB-19 [8]): 95%
growth at 0.1 µM (MDA-MB-231): 96%
growth at 0.1 µM (DU-145 [9]): 101%
growth at 1 µM (NCI/ADR-RES): 70%
growth at 100 µM (MDA-MB-468): -43%
growth at 1 µM (SF-539): 85%
growth at 100 µM (SF-268): 1%
growth at 0.01 µM (Hs-578T): 89%
